Measurements published in the CheMixHub viscosity set.
Several values for one entry are separate records, joined by “and”; a condition that tells them apart may be missing. Equal entries are not always repeated.

CCn1cc[n+](CCOC)c1.O=S(=O)([N-]S(=O)(=O)C(F)(F)F)C(F)(F)F
100 kPa
Conditions	viscosity [mPa·s]
293.15 K	43.63
298.15 K	35.49
303.15 K	29.33
308.15 K	24.58
313.15 K	20.86
318.15 K	18.03

CC(=O)OC1CCCCC1
101 kPa
Conditions	viscosity [mPa·s]
300 K	1.95
310 K	1.61
320 K	1.36

CCCCCCCC
Conditions	viscosity
293.15 K, 100 kPa	0.547 mPa·s and 0.512 mPa·s
293.15 K, 101 kPa	0.556 mPa·s and 0.539 mPa·s
298.15 K, 100 kPa	0.517 mPa·s and 0.48 mPa·s
298.15 K, 101.32 kPa	0.507 mPa·s
303.15 K, 100 kPa	0.452 mPa·s
303.15 K, 101 kPa	0.482 mPa·s
303.15 K, 101.33 kPa	0.4865 mPa·s and 0.479 mPa·s (2×) and 0.479 mPa·s
308.15 K, 100 kPa	0.468 mPa·s and 0.425 mPa·s
308.16 K, 101.3 kPa	0.4568 mPa·s
313.15 K, 100 kPa	0.447 mPa·s and 0.4 mPa·s and 0.429 mPa·s
318.15 K, 101.33 kPa	0.403 mPa·s
318.16 K, 101 kPa	0.4138 mPa·s
323.15 K, 100 kPa	0.385 mPa·s
323.15 K, 101 kPa	0.4049 mPa·s

O=[N+]([O-])c1ccccc1
viscosity
Conditions	293.15 K	298.15 K	303.15 K	308.15 K	313.15 K	318.15 K	323.15 K
100 kPa	2.087 mPa·s	1.909 mPa·s	1.755 mPa·s	–	1.501 mPa·s	1.397 mPa·s	1.303 mPa·s
101 kPa	1.931 mPa·s	–	–	1.457 mPa·s and 1.242 mPa·s and 1.601 mPa·s	1.402 mPa·s	–	1.192 mPa·s
101.3 kPa	–	1.773 mPa·s	–	–	1.373 mPa·s	–	–
101.33 kPa	2.024 mPa·s and 2.079 mPa·s and 2.079 mPa·s	–	1.665 mPa·s	–	–	–	–

CC=Cc1ccc(O)c(OC)c1
Conditions	viscosity [mPa·s]
298.15 K, 101 kPa	26.7

C=COCCCC
Conditions	viscosity [mPa·s]
308.15 K, 101 kPa	0.374

CCCCCCCCCCCCCC
Conditions	viscosity
293.15 K, 101.33 kPa	2.282 mPa·s and 2.292 mPa·s and 2.292 mPa·s
298 K, 101.33 kPa	2.074 mPa·s
298.15 K, 100 kPa	2.15 mPa·s
298.15 K, 101.33 kPa	2.088 mPa·s and 2.091 mPa·s and 2.025 mPa·s
298.15 K, 103 kPa	2.048 mPa·s
303.15 K, 101 kPa	1.895 mPa·s and 1.895 mPa·s
303.15 K, 101.33 kPa	1.864 mPa·s
308.15 K, 101 kPa	1.715 mPa·s and 1.715 mPa·s
308.15 K, 103 kPa	1.685 mPa·s
313.15 K, 100 kPa	1.612 mPa·s
313.15 K, 101.33 kPa	1.548 mPa·s
318.15 K, 101.33 kPa	1.356 mPa·s
318.15 K, 103 kPa	1.413 mPa·s
323.15 K, 101.33 kPa	1.314 mPa·s

ClC(Cl)=C(Cl)Cl
Conditions	viscosity
293.15 K, 101.33 kPa	0.8 mPa·s
298 K, 101 kPa	1.02 mPa·s
298.15 K, 101 kPa	0.838 mPa·s and 0.8486 mPa·s and 0.8426 mPa·s
298.15 K, 101.33 kPa	0.846 mPa·s
303 K, 101 kPa	0.97 mPa·s
303.15 K, 101 kPa	0.7976 mPa·s and 0.798 mPa·s and 0.814 mPa·s
303.15 K, 101.3 kPa	0.799 mPa·s
303.15 K, 101.32 kPa	0.7976 mPa·s
308 K, 101 kPa	0.92 mPa·s
313 K, 101 kPa	0.88 mPa·s
313.15 K, 101.33 kPa	0.731 mPa·s and 0.68 mPa·s

CCCCCCC
Conditions	viscosity
293.15 K, 100 kPa	0.379 mPa·s
293.15 K, 101 kPa	0.4002 mPa·s and 0.408 mPa·s
293.17 K, 101 kPa	0.409 mPa·s
293.2 K, 101.3 kPa	0.4084 mPa·s
296 K, 101.3 kPa	0.395 mPa·s and 0.397 mPa·s
298 K, 101.33 kPa	0.3899 mPa·s
298.15 K, 100 kPa	0.358 mPa·s
303 K, 101.33 kPa	0.374 mPa·s
303.15 K, 100 kPa	0.376 mPa·s and 0.337 mPa·s
303.15 K, 101.33 kPa	0.403 mPa·s and 0.381 mPa·s
308.15 K, 100 kPa	0.342 mPa·s and 0.318 mPa·s
308.15 K, 101.33 kPa	0.363 mPa·s
313.15 K, 100 kPa	0.301 mPa·s and 0.34 mPa·s
313.15 K, 101 kPa	0.331 mPa·s and 0.332 mPa·s and 0.3432 mPa·s
313.2 K, 101.3 kPa	0.3447 mPa·s
318.15 K, 101 kPa	0.326 mPa·s and 0.314 mPa·s and 0.3269 mPa·s
318.15 K, 101.33 kPa	0.317 mPa·s
323 K, 101.33 kPa	0.308 mPa·s
323.1 K, 101.3 kPa	0.3182 mPa·s
323.15 K, 101 kPa	0.3039 mPa·s

CCOCCOCCO
101 kPa
Conditions	viscosity
293.15 K	4.291 mPa·s and 3.626 mPa·s
298.15 K	3.799 mPa·s and 3.686 mPa·s and 3.278 mPa·s
303.15 K	3.186 mPa·s and 2.862 mPa·s
308.15 K	2.839 mPa·s and 2.859 mPa·s and 2.507 mPa·s
313.15 K	2.511 mPa·s
318.15 K	2.358 mPa·s and 2.269 mPa·s
